In assay [1] the test system is chondroitin sulfate proteoglycan (CSPG). Description: CSPG expression around the spinal cord lesion after contusive SCI, treatment from one day after SCI. It counts as in vivo, rat. The note with it: two weeks after contusive SCI; treatment starting one day after SCI; vs vehicle. An excerpt:
(§1) In this Example, the CRP has been applied in a preclinical rat model to test the efficacy of the treatment of spinal cord injury (SCI). The injury was made at thoracic 8 level using contusive injury device. The contusive SCI is the most clinical relevance among all experimental SCI models. We have assessed both motor and bladder control as functional outcomes and analyzed anatomical evidences to support these findings. We also selected sub-acute phase (ONE-DAY after SCI) and chronic phase (TWO-MONTHs after SCI) to start our treatment.
Furthermore CRP can efficiently improve locomotion and bladder electromyography (EMG) activities and voiding patterns after SCI.

Assay [2] deals with spinal cord injury (SCI). The note with it: cited from earlier work.
The subject of assay [3] is spinal cord injury (SCI). Description: Locomotion (BBB 21-point score) and gait after chronic SCI, treatment from two months after SCI. Type of assay: in vivo, rat.
Source text: Basso, Beattie, and Bresnahan (BBB) 21-point scoring test is used as the locomotion assessment after SCI. SCI causes significant deficits on locomotion function as indicated by the significant drop of BBB scores from 21 of the normal rats. […] However, ISP treatment slightly decreases BBB scores from 11.667±0.211 (two months after SCI) to 11.00±0.577 (two months plus 42 days after SCI) (A).
as §1
The above were followed up with studies to evaluate the treatment effects of CRP in chronic SCI. The chronic SCI is not only way more challenge to be repaired but also is the clinical status of the majority of patients with SCI.

Assay [4] deals with T1, SOCS3 (Rattus norvegicus, UniProt O88583).
T1 sequence (O88583 1-225): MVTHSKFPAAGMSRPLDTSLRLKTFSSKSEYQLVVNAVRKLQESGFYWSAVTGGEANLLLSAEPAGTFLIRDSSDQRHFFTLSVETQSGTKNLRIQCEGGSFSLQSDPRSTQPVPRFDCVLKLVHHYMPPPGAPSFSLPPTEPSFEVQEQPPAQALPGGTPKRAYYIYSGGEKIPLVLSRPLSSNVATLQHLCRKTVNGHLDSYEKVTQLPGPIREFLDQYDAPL
Nature of the assay: SOCS3 level in sciatic nerve after sciatic nerve transection, SRP treatment. Also on record: from tissue; host or cells: sciatic nerve. Type of assay: in vivo. The note with it: once per day for 4 consecutive days beginning immediately after transection; vs scrambled peptide.

The test system of assay [5] is spinal cord injury (SCI). Description: Urodynamic analyses (CMG, EUS EMG) after T8 contusive SCI, SRP treatment. Type of assay: in vivo, rat. Conditions: 3 months post-SCI. How it is done:
(§2) In this Example, the SRP has been applied in a preclinical rat model to test the efficacy of the treatment of spinal cord injury (SCI) in a manner similar to Example 1 above for CRP.
Animals were treated daily with SRP for one month, beginning one day after SCI. Urodynamic analyses were conducted 3 months post-SCI. […] EUS EMG recording were conducted 3 months post-SCI.

Assay [6] relates to spinal cord injury (SCI). Description: BBB open field locomotion test after T8 contusive SCI, SRP treatment. It counts as in vivo, rat. Conditions: subcutaneous daily for one month beginning one day after SCI; vs scrambled peptide; entire observation period.
Source text: as §2
Animals were subcutaneously injected with SRP daily for one month beginning one day after SCI and assessed by the BBB open field locomotion test to evaluate hind limb motor function at the designated time points. […] Values represent mean±SEM.

Assay [7] deals with STAT3. Description: STAT3 activation (phospho-STAT3 Tyr705) in spinal cord after SCI, SRP treatment. Type of assay: in vivo, rat. Conditions: 7 days after SCI; once per day beginning one day after SCI. The text has this: (§3) Graphs represent mean±SEM of five samples per group for the ratios of SOCS3 to actin (B) and p-STAT3 to STAT3 (C). +p<0.05, ++p<0.01, and +++p<0.001 compared to normal animals, and *p<0.05 and ***p<0.001 compared to scrambled peptide animals (two way ANOVA with Bonferroni multiple analyses).

The target of assay [8] is T2, SOCS1 (Rattus norvegicus, UniProt Q9QX78).
T2 construct: from tissue; host or cells: rat spinal cord
T2 sequence (Q9QX78 1-212): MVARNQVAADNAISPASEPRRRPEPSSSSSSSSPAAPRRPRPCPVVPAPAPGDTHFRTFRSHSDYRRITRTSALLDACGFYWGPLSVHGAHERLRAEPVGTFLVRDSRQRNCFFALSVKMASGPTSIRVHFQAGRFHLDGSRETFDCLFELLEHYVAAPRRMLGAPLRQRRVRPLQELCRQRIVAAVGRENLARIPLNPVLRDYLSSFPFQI
Nature of the assay: SOCS1 protein level in spinal cord after SCI, SRP treatment. Type of assay: in vivo. The note with it: 7 days after SCI; once per day beginning one day after SCI.

Assay [9] deals with arginase 1, iNOS, TNF-α. Description: qRT-PCR of markers for pro- vs. anti-inflammatory macrophages in spinal cord segments caudal to injury. Type of assay: in vivo, rat. Conditions: vs scrambled peptide. On the procedure:
Rats were treated once per day beginning one day after SCI with SRP or scrambled peptide (scr) and mRNA was then harvested and analyzed by qRT-PCR. […] C.

The subject of assay [10] is ED1+macrophages/microglia. Nature of the assay: Double immunolabeling of ED1 and GFAP in spinal cord after SCI, SRP treatment. Conditions: three months post-SCI, vs scrambled peptide. Type of assay: in vivo, rat. On the procedure:
SRP treatment beginning one day after SCI was administered for 30 consecutive days and then spinal cords were harvested three months post-SCI for double immunolabeling of ED1 and GFAP.

For assay [11], the system named is TBK1 and mitophagy adaptors. Nature of the assay: TBK1 and mitophagy adaptors in spinal cord after SCI, SRP treatment. Type of assay: in vivo, rat. Conditions: vs scrambled peptide. The text has this: (A). Graphs represented mean±SEM of six samples per group for the % to GAPDH (B). *p<0.05, **p<0.01 and ***p<0.001 compared to scrambled peptide animals (two-tailed t test, n=3 per group).

Assay [12] addresses T1, SOCS3. Description: SOCS3 protein level in spinal cord after SCI, SRP treatment. It counts as in vivo. Further details: from tissue; host or cells: rat spinal cord (epicenter and caudal segments). The note with it: 7 days after SCI; once per day beginning one day after SCI; vs scrambled peptide.
Source text: as §2, §3

Where [13] appears, read: once per day beginning one day after SCI.

With “intracellular sigma peptide [ISP, reference compound]”, the “CSPG in lesion epicenter and adjacent tissue” value in [1] is listed as “does not decrease CSPG”. For the same substance, in assay [2] (applied immediately after SCI in rats), the “functional recovery after SCI” value is given as “minor effects on promoting functional recovery”. In assay [2] (applied two-month after SCI), the “effect on chronic SCI” value is reported as “no effects on chronic SCI”. Moreover, the “effect on CSPG in vivo” value in [2] (background statement) is listed as “no effects on CSPG”. The BBB score was found to be 11.667±0.211 in [3] (two months after SCI (start of treatment)) and 11.00±0.577 in [3] (two months plus 42 days after SCI, treatment starting two months after contusive SCI).
In the case of “YGRKKRRQRRR-VQpYSTVVHS-KFERQKILDQRFFE [SRP]”, the “sciatic nerve transection-upregulated SOCS3” value in assay [4] is listed as “significantly reduced”. Besides, in assay [5] (daily for one month beginning one day after SCI), the “bladder hyperactivity (CMG)” value is “significantly reduced bladder hyperactivity”. In assay [5] (vs scrambled peptide), the “EUS EMG bursting activity during the void period” value was “improvement in bursting activity”, the non-voiding contraction amplitude entry is “significantly reduced”, the “number of non-voiding contractions” value is “significantly reduced” and the residual volume entry is reported as “significantly reduced”. The “hind limb locomotion (BBB)” value in assay [6] is reported as “significant improvement in hind limb locomotion”. In addition, the “phospho-STAT3 Tyr705 (p-STAT3 to STAT3)” value in assay [7] is listed as “significant activation of STAT3”. The SOCS1 level result in [8] is “not significantly altered”. In assay [9] (7 and 14 days post-SCI), the “arginase 1 expression (mRNA)” value is recorded as “increased” and the “iNOS expression (mRNA)” value is “decreased”. Besides, the “TNF-α expression (mRNA)” value in assay [9] (7 days post-SCI) is on record as “decreased”. Besides, the “SCI-increased ED1+macrophages/microglia” value in assay [10] (treatment for 30 consecutive days beginning one day after SCI) is “blocked SCI-induced upregulation of ED1+macrophages”. The “GFAP+tissues surrounding the lesion epicenter” value in assay [10] is “preserved more GFAP+tissues”. Moreover, in [11] (setting [13]), the TBK1 protein level entry is “significantly increased” and the optineurin protein level entry is reported as “significantly increased”. In addition, in [11], the “phospho-TBK1 Ser172 (p-TBK1)” value was “significant activation of TBK1 and p62”; the “phosphor-p62 Ser403 (p-p62)” value is “significant activation of TBK1 and p62”. Besides, the “SCI-upregulated SOCS3 (ratio of SOCS3 to actin)” value in [12] is “significantly reduced”.
